Measurements taken from paper PMC9833666, “Designing and identifying β-hairpin peptide macrocycles with antibiotic potential” (Science Advances, 2023).
Where two headings read alike, the source gives them in different places. Bridge positions count the residues as written; N and C are the ends. Ends that are not written are not given here. Peptide text beside a SMILES is read from it.

How the values were obtained:
Escherichia coli W3110 = format: cell-based; conditions: for Ec W3110 MIC MH: E. coli W3110, MH medium; for Ec W3110 MIC RPMI: E. coli W3110, RPMI medium
[1] = system: Single-donor human red blood cells; experiment: Hemolysis assay; format: cell-based
Protocol: Single-donor human red blood cells (Innovative Research, no. IWB3ALS) were washed in PBS and adjusted to a concentration of 1 × 10^9 cells/ml. Each peptide was added individually to 200 μl of cells at a concentration of either 300 μg/ml (SySA library) or 128 μg/ml (SySA-5 optimization library) in a 96-well polypropylene plate (Corning, 3879). PBS alone and 1% Triton X-100 were used for background normalization and 100% hemolysis, respectively. Each reaction was set up in triplicate. Plates were incubated for 3 hours at 37°C. Following incubation, samples were centrifuged at 800g for 20 min, and 100 μl of supernatant was transferred to a flat-bottom 96-well plate (Genesse, 25-104). Percent hemolysis for each sample was determined by normalizing the absorbance at 540 nm for each sample to the average background and dividing by the average absorbance for 1% Triton X-100 (100% hemolysis). Error bars represent 1 SD of triplicate samples.

Molecule	Ec W3110 MIC MH (Escherichia coli W3110)	Ec W3110 MIC RPMI (Escherichia coli W3110)	hemolysis [1]	also measured
CLTIRVNNRRGRVRISVQVC (disulfide 1-20 (inferred)) [SySA-15]	> 256 µg/mL	> 256 µg/mL	0.80%	
NC[C@H]1O[C@H](O[C@H]2[C@H](O)[C@@H](O[C@H]3O[C@H](CO)[C@@H](O)[C@H](N)[C@H]3O)[C@H](N)C[C@@H]2N)[C@H](O)[C@@H](O)[C@@H]1O [kanamycin, reference compound]	1 µg/mL			W3110 MIC MHII (Escherichia coli W3110; E. coli W3110, MHII medium): 2 µg/mL; fold increase in MHII MIC relative to standard MH (Escherichia coli W3110; cation-adjusted MH (MHII) vs standard MH): twofold; Hemolysis (%) ([1]; human red blood cells 1x10^9 cells/ml, peptide 300 μg/ml, 3 h 37°C, relative to 1% Triton X-100, A540, ± 1 SD, n=3): 0.1 ± 0.03%; hemolysis ([1]; human red blood cells, st dev in separate column): 0.0147%
CVTVRVNNRGSRLKVSVEVC (disulfide 1-20 (inferred)) [SySA-18]	> 256 µg/mL	> 256 µg/mL	0.60%	
CRIRINVNNGSGRVRLELEC (disulfide 1-20 (inferred)) [SySA-77]	> 256 µg/mL	> 256 µg/mL	0.32%	
CVRIRLNNGGSGVKVTVEVC (disulfide 1-20 (inferred)) [SySA-85]	> 256 µg/mL	> 256 µg/mL	1.81%	
CLTVRLDNRGSGLRITVEVC (disulfide 1-20 (inferred)) [SySA-44]	> 256 µg/mL	> 256 µg/mL	-0.0761%	
CRVRVNINNRGGTVKLQLQC (disulfide 1-20 (inferred)) [SySA-13]	> 256 µg/mL	> 256 µg/mL	0.91%	
CC(C)C[C@@H]1NC(=O)[C@H](CCCNC(=N)N)NC(=O)[C@H](C(C)C)NC(=O)[C@H](CCCNC(=N)N)NC(=O)[C@H](C(C)C)NC(=O)[C@@H](N)CSSC[C@@H](C(=O)O)NC(=O)[C@H](C(C)C)NC(=O)[C@H](CCC(N)=O)NC(=O)[C@H](C(C)C)NC(=O)[C@H](CO)NC(=O)[C@H](C(C)C)NC(=O)[C@H](CCCNC(=N)N)NC(=O)[C@H](C(C)C)NC(=O)[C@H](CCCNC(=N)N)NC(=O)[C@H](CCCNC(=N)N)NC(=O)[C@H](CCCNC(=N)N)NC(=O)[C@H](CCCNC(=N)N)NC(=O)[C@H](CC(N)=O)NC(=O)[C@H](CC(N)=O)NC1=O [SyPA-10] (H-CVRVRLNNRRRRVRVSVQVC-OH; disulfide 1-20)				W3110 MIC (Escherichia coli W3110; SyPA peptides, MH, replicate 2): 16 µg/mL; W3110 MIC (Escherichia coli W3110; SyPA peptides, MH, replicate 3): 16 µg/mL; %Hemo ([1]; SyPA peptides, human red blood cells, 3 h 37°C, relative to 1% Triton X-100, peptide concentration not stated for SyPA, n=3): 1.99%
CRVKINVDNRSGRVKLELQC (disulfide 1-20 (inferred)) [SySA-69]	> 256 µg/mL	> 256 µg/mL	0.72%	
CLRIRLNNRRSRVRISVEVC (disulfide 1-20 (inferred)) [SySA-52]	> 256 µg/mL	> 256 µg/mL	9.99%	
CVTIRLNDGGSGLKISLQVC (disulfide 1-20 (inferred)) [SySA-23]	> 256 µg/mL	> 256 µg/mL	-0.03%	
CC[C@H](C)[C@@H]1NC(=O)[C@H](CC(N)=O)NC(=O)[C@H](C(C)C)NC(=O)[C@H](CCCNC(=N)N)NC(=O)[C@H](C(C)C)NC(=O)[C@H](CCCNC(=N)N)NC(=O)[C@@H](N)CSSC[C@@H](C(=O)O)NC(=O)[C@H](CCC(N)=O)NC(=O)[C@H](CC(C)C)NC(=O)[C@H](CCC(N)=O)NC(=O)[C@H](CC(C)C)NC(=O)[C@H](CCCNC(=N)N)NC(=O)[C@H](CC(C)C)NC(=O)[C@H]([C@@H](C)O)NC(=O)[C@H](CCCNC(=N)N)NC(=O)[C@H](CO)NC(=O)[C@H](CCCNC(=N)N)NC(=O)[C@H](CC(N)=O)NC(=O)[C@H](CC(=O)O)NC1=O [SyPA-7] (H-CRVRVNIDNRSRTLRLQLQC-OH; disulfide 1-20)				W3110 MIC (Escherichia coli W3110; W3110): >128 µg/mL; %Hemo [1]: 1.48%
CRVRININNGGRRVKLEVQC (disulfide 1-20 (inferred)) [SySA-32]	> 256 µg/mL	> 256 µg/mL	0.0319%	
CVRVRVNNRGGGVRITLQVC (disulfide 1-20 (inferred)) [SySA-24]	> 256 µg/mL	> 256 µg/mL	0.38%	
CLRIRLNNRGRGVKVSVEVC (disulfide 1-20 (inferred)) [SySA-46]	> 256 µg/mL	> 256 µg/mL	0.47%	
